Source: US7531575B2, “Method of modulating cellular activity and agents useful for same” (Eberhard-Karls-Universität Tübingin, priority 2002, dated 2009)

Legend:
Type in all cases: cell-based, murine
[1] = test system: iNOS; experiment: iNOS activity by Griess assay (nitrite formation), LPS-stimulated N9 microglia; conditions: N9 cells
Description: (§1) TNL was a generous gift of Kissei Pharmaceuticals, LPC (Escherichia coli, 0127:BS), phorbol 12-myristate 13-acetate (PMA) and dexamethasone (DEX) were obtained from Sigma, BAY 11-7082 (BAY), NF-κB SN50 inhibitory peptide (SN50), GF 109203X (GFX) and rottlerin (ROT) were purchased from Biomol. PD098059 (PD) was obtained from Calbiochem. Purified murine interferon-γ (IFN-γ) was purchased from Roche Diagnostics. N9 murine microglial cells were a kind gift from P. Ricciardi-Castagnoli (Righi, M. et al. 1989 supra). Cells were cultured in Dulbecco's modified Eagle's medium (DMEM) supplemented with 10% fetal calf serum (FCS), 2 mM glutamine, penicillin (100 unit/mL) and streptomycin (100 μg/mL) and maintained at 37° in an atmosphere of 5% CO2. Viability was assessed by crystal violet staining.
iNOS activity was assessed by the Griess assay (Platten, M., Wick, W., Wischhusen, J. and Weller, M. Br J Pharmacol 134(6):1279-1284, 2001). Briefly, conditioned supernatant was incubated with an equal volume of Griess reagent containing 1% sulphanilamide, 0.1% naphthylethylenediamine dihydrochloride and 2.5% H3PO4 (Green, L. C., Wagner, D. A., Glogowski, J., Skipper, P. I., Wishnok, J. S, and Tannenbaum, S. R. Anal. Biochem., 126:131-138, 1982) for 5 min. at room temperature. The absorbance was measured at 546 nm. NaNO2 diluted in DMEM served as a standard. To control for cell number, the cells were stained with crystal violet. iNOS activity is expressed as nitrite accumulated in 48 hr/10^5 cells.

[2] = test system: iNOS; experiment: iNOS protein immunoblot, LPS-stimulated N9 microglia
Description: as §1
For the preparation of whole cell lysates, the cells were lysed in 0.1 M Tris-HCl (pH 7.2) containing 0.1% NP40, 0.1 mM EDTA and 5 μg/mL phenylmethylsulphonyl fluoride. Twenty micrograms protein was separated by 10-12% SDS-PAGE and electroblotted on nitrocellulose membrane. Equal loading was controlled by Ponceau S staining. Immunodetection was performed using the following antibodies: anti-iNOS rabbit polyclonal antibody (1:1000, Cayman), antiphospho-IκBα mouse monoclonal antibody (1:1000), anti-PKCδ mouse monoclonal antibody (1:2000), antiphospho-MARCKS rabbit polyclonal antibody (1:1000), antiphospho-ERK-1/2, antiphospho-AKT, antiphospho-p38 mouse monoclonal antibodies (1:2000), anti-ERK-1/2, anti-AKT mouse monoclonal antibodies (1:500, all from Signal Transduction Laboratories). Bands were visualized using horseradish peroxidase-conjugated anti-rabbit IgG (1:4000 SantaCruz) or anti-mouse IgG (1:4000, Amersham).

[3] = test system: ERK-1/2; experiment: phospho-ERK-1/2 immunoblot after PKC depletion, LPS-stimulated N9 microglia; conditions: N9 cells, prolonged pretreatment with PMA 100 nM 24 hr, then LPS 10 μg/mL
Description: as §1
(§2) For the preparation of whole cell lysates, the cells were lysed in 0.1 M Tris-HCl (pH 7.2) containing 0.1% NP40, 0.1 mM EDTA and 5 μg/mL phenylmethylsulphonyl fluoride. Twenty micrograms protein was separated by 10-12% SDS-PAGE and electroblotted on nitrocellulose membrane. Equal loading was controlled by Ponceau S staining. […]

[4] = test system: PKCδ; experiment: PKCδ immunoblot after long-term PMA in N9 microglia; conditions: N9 cells, PMA 100 nM, 24 hr treatment, data not shown
Description: as §1, §2

[5] = test system: iNOS; experiment: iNOS activity by Griess assay (NO2 release), IFN-γ-stimulated N9 microglia; conditions: N9 cells, IFN-γ 200 u ml, 48 h, dexamethasone 500 nM
Procedure: Tranilast was a generous gift of Kissei Pharmaceuticals (Nagano, Japan). Murine recombinant IFN-γ was purchased from Boehringer (Mannheim, Germany). Dexamethasone (DEX) was obtained from Sigma (Deisenhofen, Germany). N9 murine microglial cells were a kind gift from P. Ricciardi-Castagnoli (Milano, Italy) (Righi, M., Mori, L., De Libero, G., Sironi, M., Biondi, A., Mantovani, A., Donini, S. D. and Ricciardi-Castagnoli, P. Eur J Immunol 19(8):1443-1448, 1989). The cells were cultured in Dulbecco's modified Eagle's medium (DMEM) supplemented with 10% foetal calf serum (FCS), 2 mM glutamine and penicillin ([…])/streptomycin (100 μg ml), and maintained at 37° C. in an atmosphere of 5% CO2. Viability was assessed by crystal violet staining.
iNOS activity was assessed by the Griess assay as described elsewhere (Rieger, J., Stander, M., Loschmann, P. A., Heneka, M., Dichgans, J., Klockgether, T. and Weller, M., Oncogene, 17:2323-2332, 1998). Briefly, conditioned supernatant (100 μl) was incubated with an equal volume of 1% sulphanilamide/0.1% naphthyl ethylene diamine dihydrochloride/2.5% H3PO4 (Griess reagent) (Green, L. C., Wagner, D. A., Glogowski, J., Skipper, P. I., Wishnok, J. S, and Tannenbaum, S. R., Anal. Biochem., 126:131-138, 1982), incubated for 5 min at room temperature, and the absorbance at […] determined. Solutions of NaNO2 diluted in DMEM served as standards. The absorbance readings resulting from DMEM alone were subtracted from the sample values. Cell density was assessed using crystal violet staining to control for differences in cell proliferation. iNOS activity is thus expressed here as NO2 accumulated per 48 h per 10^5 cells.

Question: How did the “LPS-stimulated NO release” value ([1]; LPS, BAY 20 μM, vehicle-treated cells 14.6±1.0) turn out when Cc1ccc(S(=O)(=O)/C=C/C#N)cc1 [BAY] was run?
Answer: 11.1±0.7 μM/10^4 cells/48 hr

Question: How did the “PMA superinduction of iNOS protein in LPS-stimulated cells” value ([2]; PMA 100 nM 15 min, LPS 10 μg/mL 24 hr, GFX 2 μM) turn out when CN(C)CCCn1cc(C2=C(c3c[nH]c4ccccc34)C(=O)NC2=O)c2ccccc21 [GFX] was run?
Answer: abolished

Question: Which LPS-mediated nitrite formation ([1]; LPS, 40 μM PD, vehicle-treated cells 16.6±0.3) does the source give for COc1cccc(-c2cc(=O)c3ccccc3o2)c1N [PD] here?
Answer: 10.7±0.4 μM/10^4 cells/48 hr

Question: What does the source list for CCCCCCCCCCCCCC(=O)O[C@@H]1[C@@H](C)[C@@]2(O)[C@@H](C=C(CO)C[C@]3(O)C(=O)C(C)=C[C@@H]23)[C@@H]2C(C)(C)[C@]12OC(C)=O [PMA, phorbol 12-myristate 13-acetate]?
Answer: LPS-mediated nitrite formation ([1]; PMA 100 nM pretreatment 15 min, LPS 10 μg/mL, 48 hr): superinduction; LPS-induced ERK-1/2 phosphorylation [3]: failed to induce; PKCδ protein level [4]: effectively depleted; reduction of iNOS protein (densitometry) ([2]; N9 cells, 24-hr exposure to PMA 100 nM, then LPS 10 μg/mL for 24 hr): 80%; LPS-mediated iNOS protein expression ([2]; N9 cells, PMA 100 nM pretreatment 15 min, LPS 10 μg/mL, 24 hr): superinduction; iNOS protein expression in the absence of LPS ([2]; N9 cells, PMA 100 nM, no LPS): did not induce

Question: For CC(=O)c1c(O)c(C)c(O)c(Cc2c(O)c3c(c(C(=O)/C=C/c4ccccc4)c2O)OC(C)(C)C=C3)c1O [ROT, rottlerin], which “iNOS protein accumulation after LPS” value ([2]; N9 cells, LPS 10 μg/mL 24 hr, ROT at concentrations as low as 5 μM) is on record?
Answer: strongly inhibited

Question: For C[C@@H]1C[C@H]2[C@@H]3CCC4=CC(=O)C=C[C@]4(C)[C@@]3(F)[C@@H](O)C[C@]2(C)[C@@]1(O)C(=O)CO [dexamethasone], which “reduction of the amount of NO2 (Griess assay)” value [5] is on record?
Answer: 75%
